{
  "source": "patent US20240252450A1",
  "about": "“TREATMENT FOR EPILEPTIC SEIZURES” (priority 2021, published 2024)",
  "tested_on": "epileptic seizures",
  "experiment": "Clinical treatment of the inventor's child with mixed epileptic seizure types (case report)",
  "format": "in vivo, human",
  "conditions": "for effect on the child's epileptic seizures: onset, hundreds of seizures a day, substance given without cannabis extract",
  "source_text": "The inventor has a child, who, experienced an abrupt onset of hundreds of absence seizures a day that developed into mixed epileptic seizure types, including absence, focal, atonic, myoclonic-atonic, tonic, and eventually a 10-hour status epilepticus seizure. The Inventor was told their child would die in their sleep from SUDEP and no medication will be able to treat them. […] The child is […] now and has developed normally.",
  "data": [
    {"smiles": "CC[C@@H](C(N)=O)N1CCCC1=O", "note": "[Keppra, Levetiracetam]", "values": [
      {"measurement": "side effects", "setting": "child with intractable seizures, Keppra without cannabis extract", "value": "side effects of nausea and “Keppra rage”"},
      {"measurement": "effect on the child's epileptic seizures", "value": "reduced the frequency of the seizures but could not fully control them"}
    ]},
    {"smiles": "C=C(C)[C@@H]1CCC(C)=C[C@H]1c1c(O)cc(CCCCC)cc1O", "note": "[CBD, cannabidiol]", "values": [
      {"measurement": "effect on the child's epileptic seizures", "value": "neither did CBD alone"}
    ]}
  ]
}
